Measured values as given in patent US20230331679A1, “NAPHTHALENE MONOIMIDE COMPOUNDS AND METHODS THEREOF” (JAWAHARLAL NEHRU CENTRE FOR ADVANCED SCIENTIFIC RESEARCH, priority 2020, published 2023).

Legend:
APP/PS1 and WT mice = assay: Morris water maze (MWM) test; format: in vivo
Experimental: The spatial and episodic memory formation under AD conditions were investigated through spatial learning and memory development tasks in MWM test. MWM test was performed in a water pool (radius: 70 cm) and experimental mice were trained four times in a day to find a hidden platform, which was removed in probe trial to assess the spatial memory. The latency time to reach the hidden platform during the training period was recorded to determine spatial learning (FIG. 16H). […] In the probe trial, AD vehicle cohort spent most of the time (~87% of total time) in other quadrants (without platform), while other cohorts (WT vehicle, WT TGR63 and AD TGR63) spent only ~67%, 58% and 66% of total time in without platform quadrants, respectively. The AD vehicle cohort spent minimum time (~13% of total time) in target quadrant (with platform) compared to WT vehicle cohort (~33% of total time). […] Remarkably, AD TGR63 cohort crossed the platform region ~4 times, which is greater than the AD vehicle cohort.

Aβ42 peptide = molecular target: T1, Aβ42 peptide (Homo sapiens, UniProt P05067); assay: 1H NMR study of molecular interactions between TGR63 and Aβ42; format: binding; conditions: Aβ42 10 µM, D2O (12%) containing PBS, 24, 48 and 72 h
T1 construct: commercially available β-amyloid peptide (1-42), human; purchased marck (so in the source) PP69-.025 mg
T1 sequence (P05067 672-713 limits assumed): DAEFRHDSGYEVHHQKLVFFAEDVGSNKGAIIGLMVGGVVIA
Experimental: Nuclear magnetic resonance (NMR) spectroscopy was performed to ascertain the molecular level interactions between TGR63 and Aβ42 peptide. ^1H NMR spectra of TGR63 were acquired in absence and presence of Aβ42 (10 µM) peptides using the WATERGATE sequence for solvent suppression in deuterium oxide (D2O, 12%) containing PBS at different incubation time points (24, 48 and 72 h). […] The aromatic protons of NMI and aniline moieties (a-f) appeared at 6.5-8.8 ppm, respectively. However, the splitting patterns of all the aromatic peaks were completely readjusted undergoing a significant downfield shift over a period of time in the presence of Aβ42 peptide. This observation confirmed the interaction of aromatic moieties (π-electron rich) of TGR63 with native and misfolded Aβ42 peptides, which leads to alteration in the extent of nuclei and proximal electron coupling (J-couplings).

[1] = MALDI mass analysis of blood serum after administration; format: in vivo; conditions: WT mice, 24 h after administration
Experimental: (§1) Pharmacokinetics of TGR63 in wild-type (WT) mice was performed to assess its in vivo efficacy. The lethal dose 50 (LD50) of TGR63 was determined in WT mice through intraperitoneal (IP) injection following the Organisation for Economic Cooperation and Development (OECD) guidelines. […] FIG. 7A illustrates the calculation of lethal dose 50% (LD50) of TGR63 through intraperitoneal administration and is represented as table of experimental details and the final observation was done on 14th day. FIG. 7B illustrates the mortality (%) plotted against TGR63 concentration and calculation of LD50. Twenty-five WT mice were segregated in five different groups (G1-5, N= 5 per group) and administered with varying doses of TGR63 (1.7, 5.5, 17.5 56.0 and 179.0 mg/kg body weight, respectively) through IP injection and their survival was monitored for 14 days. The serum stability and blood-brain barrier (BBB) crossing ability of TGR63 were assessed through matrix-assisted laser desorption ionization (MALDI) mass spectrometry analysis of blood and brain samples of vehicle and TGR63 treated mice. […] The partition coefficient (P), a valuable physical property was calculated to predict the BBB permeability. […] The calculated positive logP value predicts the possible BBB crossing ability for TGR63. […]

WT mice = assay: LD50 by intraperitoneal injection (OECD guidelines); format: in vivo; conditions: IP injection, survival monitored 14 days
Experimental: as §1

SHSY5Y cells = assay: Membrane toxicity modulation, immunocytochemistry in SHSY5Y cells; format: cell-based; conditions: Aβ42 pre-incubated 24 h with TGR63, 2 h treatment
Experimental: Inspiring from the above-mentioned studies, membrane toxicity modulation ability of TGR63 through immunocytochemistry in SHSY5Y cells was also investigated. The cells were cultured in 35 mm confocal dishes and treated individually with Aβ42 samples, pre-incubated for 24 h in the presence and absence of TGR63 for 2 h under cell growing conditions. Then the experimental cells were washed and fixed using 4% paraformaldehyde (PFA) to probe the Aβ42 fibrils with OC (1:250) antibody, followed by red fluorescent labeled (λex= 633 nm and λem= 650 nm) secondary antibody (Alexa 633-A21052, Thermo). Finally, unbound antibody was washed and 4′,6-diamidino-2-phenylindole (DAPI) was used to stain the nucleus before the confocal imaging. For DAPI staining, experimental cells were incubated with DAPI (500 nM) solution (PBS) for 10 min at room temperature. Then, the cells were washed with PBS three times and imaged under confocal fluorescence microscope (λex= 358 nm, […]). FIG. 5 depicts the images obtained by nuclear staining of SHSY5Y cells with DAPI(blue) and Aβ42 fibrils staining with OC antibody and red fluorescent labelled secondary antibody.

Aβ42 fibrils = molecular target: T2, Aβ42 fibrils (Homo sapiens, UniProt P05067); assay: TEM visualization of Aβ42 aggregation species; format: biochemical; conditions: 10 µM Aβ42, 50 µM TGR63, 48 h
T2 construct: commercially available β-amyloid peptide (1-42), human; purchased marck (so in the source) PP69-.025 mg
T2 sequence (P05067 672-713 limits assumed): as above
Experimental: To visualize the amyloid fibrils, the 10 µM of Aβ42 peptides were incubated alone, and in combination with 50 µM TGR63 for 48 h and spotted on mica surface and TEM grid to acquire the TEM images. FIG. 4(a) and FIG. 4(b) show the TEM images of Aβ42 aggregation species in the absence and presence of TGR63 respectively.

## CN(C)c1ccc(C#Cc2ccc3c4c(cccc24)C(=O)N(CC[N+](C)(C)C)C3=O)cc1 [TGR63, 2-(6-((4-(dimethylamino)phenyl)ethynyl)-1,3-dioxo-1H-benzo[de]isoquinolin-2(3H)-yl)-N,N,N-trimethylethan-1-aminium]
APP/PS1 and WT mice; AD TGR63 cohort, probe trial
  exploration in target quadrant relative to AD vehicle cohort: < 20%
APP/PS1 and WT mice; AD TGR63 cohort, training days
  spatial memory formation (latency to hidden platform during training): significant improvement in spatial memory formation compared to AD vehicle cohort
APP/PS1 and WT mice; AD TGR63 cohort, AD vehicle ~1 time, WT vehicle ~4 times
  platform region crossings, probe trial: ~ 4 times
APP/PS1 and WT mice; AD TGR63 cohort, AD vehicle ~13%
  exploration in target quadrant, probe trial: ~ 34 % of total time
APP/PS1 and WT mice; AD TGR63 cohort, AD vehicle ~87%
  time in without platform quadrants, probe trial: ~66 % of total time
APP/PS1 and WT mice; WT TGR63 cohort, WT vehicle ~33%
  exploration in target quadrant, probe trial: < 35 % of total time
APP/PS1 and WT mice; WT TGR63 cohort, WT vehicle ~67%
  time in without platform quadrants, probe trial: ~58 % of total time
Aβ42 peptide
  interaction with Aβ42 peptides (1H NMR): interacts with native and misfolded Aβ42 peptides
[1]
  presence in blood (MALDI): confirmed the presence of TGR63 in blood after 24 h of administration
WT mice
  LD50: ~ 157.9 mg/kg body weight
SHSY5Y cells
  OC red fluorescence signal of Aβ42 fibrils on plasma membrane: lower red fluorescence signal on the plasma membrane
Aβ42 fibrils
  intertwined structure of Aβ42 fibrils (TEM): disrupted
